Test results: ChEMBL document CHEMBL1143495, “Topological model for the prediction of MRP1 inhibitory activity of pyrrolopyrimidines and templates derived from pyrrolopyrimidine” (Bioorg Med Chem Lett, 2005)

Target: Multidrug resistance-associated protein 1 (Homo sapiens, UniProt P33527)
Assay: Inhibitory concentration against multidrug resistance associated protein 1

Chain of Multidrug resistance-associated protein 1 (P33527 whole entry): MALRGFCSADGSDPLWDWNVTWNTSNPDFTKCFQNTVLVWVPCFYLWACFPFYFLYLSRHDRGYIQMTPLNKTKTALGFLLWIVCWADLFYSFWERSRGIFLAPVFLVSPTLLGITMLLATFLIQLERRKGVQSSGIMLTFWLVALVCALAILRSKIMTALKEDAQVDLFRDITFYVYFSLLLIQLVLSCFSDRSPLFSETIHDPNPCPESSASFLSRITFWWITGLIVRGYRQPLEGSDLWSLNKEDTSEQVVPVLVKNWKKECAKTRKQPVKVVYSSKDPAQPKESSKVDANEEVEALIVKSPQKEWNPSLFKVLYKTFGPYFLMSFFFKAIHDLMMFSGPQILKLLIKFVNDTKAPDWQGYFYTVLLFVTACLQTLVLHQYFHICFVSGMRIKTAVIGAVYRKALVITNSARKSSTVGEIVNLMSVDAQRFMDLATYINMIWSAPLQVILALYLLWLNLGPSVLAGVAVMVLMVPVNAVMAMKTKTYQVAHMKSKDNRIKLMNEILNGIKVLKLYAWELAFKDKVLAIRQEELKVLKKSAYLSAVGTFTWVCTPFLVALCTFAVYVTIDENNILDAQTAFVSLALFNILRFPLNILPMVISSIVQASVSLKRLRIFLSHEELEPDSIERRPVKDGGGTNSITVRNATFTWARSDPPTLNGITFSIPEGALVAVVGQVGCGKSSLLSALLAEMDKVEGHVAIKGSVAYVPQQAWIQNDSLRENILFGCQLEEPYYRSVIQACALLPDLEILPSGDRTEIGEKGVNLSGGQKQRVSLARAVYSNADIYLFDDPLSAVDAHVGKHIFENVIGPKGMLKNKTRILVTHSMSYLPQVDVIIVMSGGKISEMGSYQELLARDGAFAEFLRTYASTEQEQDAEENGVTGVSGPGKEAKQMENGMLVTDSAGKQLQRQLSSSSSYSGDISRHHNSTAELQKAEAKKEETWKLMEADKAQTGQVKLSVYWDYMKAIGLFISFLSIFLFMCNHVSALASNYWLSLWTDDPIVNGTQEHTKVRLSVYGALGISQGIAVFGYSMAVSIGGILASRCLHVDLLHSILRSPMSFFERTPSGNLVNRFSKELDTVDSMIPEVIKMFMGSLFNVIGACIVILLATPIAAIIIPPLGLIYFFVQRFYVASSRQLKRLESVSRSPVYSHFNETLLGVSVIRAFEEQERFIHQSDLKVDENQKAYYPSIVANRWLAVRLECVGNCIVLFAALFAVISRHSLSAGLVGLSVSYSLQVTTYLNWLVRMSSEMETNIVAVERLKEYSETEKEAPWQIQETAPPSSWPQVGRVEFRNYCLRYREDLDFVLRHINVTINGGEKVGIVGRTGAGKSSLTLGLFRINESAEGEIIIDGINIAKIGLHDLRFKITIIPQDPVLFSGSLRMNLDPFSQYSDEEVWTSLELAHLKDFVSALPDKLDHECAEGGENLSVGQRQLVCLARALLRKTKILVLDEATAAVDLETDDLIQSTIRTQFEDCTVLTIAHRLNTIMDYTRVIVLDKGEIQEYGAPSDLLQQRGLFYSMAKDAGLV

| Compound | IC50 |
| --- | --- |
| Cc1c([N+](=O)[O-])nc2c(c1C(N)=O)c1ncnc(N3CCN(CCc4ccc(F)c(F)c4)CC3)c1n2C | < 250 nM |
| CCOC(=O)Cn1c2cccc(C(N)=O)c2c2ncnc(N3CCN(CCc4ccc(F)c(F)c4)CC3)c21 | < 250 nM |
| Cc1cnc2c(c1C#N)c1ncnc(N3CCN(CCc4ccc(F)c(F)c4)CC3)c1n2C | ≥ 250 nM |
| Cc1cnc2c(c1C(N)=O)c1ncnc(N3CCN(CCc4ccc(F)c(F)c4)CC3)c1n2C | < 250 nM |
| COc1cccc(CCN2CCN(c3ncnc4c(C#N)c5n(c34)CCCC5)CC2)c1 | ≥ 250 nM |
| O=C(NCc1ccccn1)c1c2n(c3c(N4CCN(CCc5ccc(F)c(F)c5)CC4)ncnc13)CCCC2 | < 250 nM |
| COc1ccc(CCN2CCN(c3ncnc4c(C#N)c5n(c34)CCCC5)CC2)cc1 | ≥ 250 nM |
| NC(=O)c1c2n(c3c(N4CCN(CCc5ccc(F)c(F)c5)CC4)ncnc13)CCCC2 | < 250 nM |
| N#Cc1c2n(c3c(N4CCN(CCc5ccc(F)c(F)c5)CC4)nc(-c4ccncc4)nc13)CCCC2 | < 250 nM |
| N#Cc1c2n(c3c(N4CCN(CCCc5ccccc5)CC4)ncnc13)CCCC2 | ≥ 250 nM |
| N#Cc1c2n(c3c(N4CCN(CCc5ccc(F)c(F)c5)CC4)ncnc13)CCCC2 | < 250 nM |
| Cc1nc(-c2c3n(c4c(N5CCN(CCc6ccccc6)CC5)ncnc24)CCCC3)sc1C | ≥ 250 nM |
| N#Cc1c2n(c3c(N4CCN(CCc5ccccc5[N+](=O)[O-])CC4)ncnc13)CCCC2 | ≥ 250 nM |
| COc1cccc(CNC(=O)c2c3n(c4c(N5CCN(CCc6ccc(F)c(F)c6)CC5)ncnc24)CCCC3)c1OC | < 250 nM |
| N#Cc1c2n(c3c(N4CCN(CCc5ccc([N+](=O)[O-])cc5)CC4)ncnc13)CCCC2 | ≥ 250 nM |
| N#Cc1c2n(c3c(N4CCN(CCc5cccc([N+](=O)[O-])c5)CC4)ncnc13)CCCC2 | ≥ 250 nM |
| CCC(=O)c1c2n(c3c(N4CCN(CCc5ccccc5)CC4)ncnc13)CCCC2 | ≥ 250 nM |
| N#Cc1c2n(c3c(N4CCN(CCc5ccccc5)CC4)nc(-c4ccccc4)nc13)CCCC2 | ≥ 250 nM |

| Compound | IC50 |
| --- | --- |
| N#Cc1c2n(c3c(N4CCN(CCc5ccccc5Cl)CC4)ncnc13)CCCC2 | ≥ 250 nM |
| N#Cc1c2n(c3c(NS(=O)(=O)Cc4ccccc4)ncnc13)CCCC2 | ≥ 250 nM |
| CN(CCc1ccccc1)c1ncnc2c(C#N)c3n(c12)CCCC3 | ≥ 250 nM |
| Cc1ccccc1-c1nc(N2CCN(CCc3ccc(F)c(F)c3)CC2)c2c(n1)c(C#N)c1n2CCCC1 | ≥ 250 nM |
| N#Cc1c2n(c3c(N4CCN(CCc5ccccc5)CC4)nc(I)nc13)CCCC2 | ≥ 250 nM |
| N#Cc1c2n(c3c(N4CCN(CC(=O)c5ccccc5)CC4)ncnc13)CCCC2 | ≥ 250 nM |
| N#Cc1c2n(c3c(NCCN4CCc5ccccc5C4)ncnc13)CCCC2 | ≥ 250 nM |
| N#Cc1c2n(c3c(N4CCN(CCc5c[nH]c6ccccc56)CC4)ncnc13)CCCC2 | ≥ 250 nM |
| N#Cc1c2n(c3c(N4CCN(CCc5cccc(Cl)c5)CC4)ncnc13)CCCC2 | ≥ 250 nM |
| COC(=O)c1c2n(c3c(N4CCN(CCc5ccccc5)CC4)ncnc13)CCCC2 | ≥ 250 nM |
| O=C(c1ccccc1)c1c2n(c3c(N4CCN(CCc5ccccc5)CC4)ncnc13)CCCC2 | ≥ 250 nM |
| c1ccc(CCN2CCN(c3ncnc4c(-c5ncccn5)c5n(c34)CCCC5)CC2)cc1 | ≥ 250 nM |
| N#Cc1c2n(c3c(N4CCN(CCc5ccc(Cl)cc5)CC4)ncnc13)CCCC2 | ≥ 250 nM |
| N#Cc1c2n(c3c(NCCc4ccccc4)ncnc13)CCCC2 | ≥ 250 nM |
| N#Cc1c2n(c3c(N4CCN(CCc5ccc(F)c(F)c5)CC4)nc(-c4cccnc4)nc13)CCCC2 | < 250 nM |
| CC(=O)Nc1ccc(-c2nc(N3CCN(CCc4ccccc4)CC3)c3c(n2)c(C#N)c2n3CCCC2)cc1 | ≥ 250 nM |
| Cc1nc(-c2c3n(c4c(N5CCN(CCc6ccccc6)CC5)ncnc24)CCCC3)no1 | ≥ 250 nM |
| N#Cc1c2n(c3c(N4CCN(S(=O)(=O)Cc5ccccc5)CC4)ncnc13)CCCC2 | ≥ 250 nM |
